Numbers after ± are expanded uncertainties.
What was measured:
[1] = refractive index (Na D-line) (dimensionless); details: 293.15 K; 101.33 kPa; Liquid; refractometer
[2] = 293.15 K; 101.33 kPa; Liquid; Vibrating tube method

refractive index [1]	mass density [2]	Compound
1.418 ± 0.0002	818.7 ± 0.3 kg/m3	CCCCCCO [hexan-1-ol]
1.4098 ± 0.0003	815.1 ± 0.5 kg/m3	CCCCCO [pentan-1-ol]
1.3442 ± 0.0001	782.5 ± 0.2 kg/m3	CC#N [acetonitrile]

Reference: the NIST ThermoML archive (doi:10.1016/j.tca.2006.08.007)
